Results reported in EP0859607B1, “GUANIDINO PROTEASE INHIBITORS” (3-DIMENSIONAL PHARMACEUTICALS, INC., priority 1995, dated 1997).
pKi: −log10 of the molar value. Structures can show the parent of a compound that is named as a salt.

Assays:
Assay type in all cases: biochemical
human α-thrombin = molecular target: T1, human α-thrombin (Homo sapiens, UniProt P00734); experiment: In vitro inhibition of purified enzymes, Ki determination: thrombin; settings: Enzyme: Thrombin; substrate Suc-Ala-Ala-Pro-Arg-pNA 20 µM; pH 7.5, 37°C
T1 construct: Purified human α-thrombin was diluted into assay buffer; purchased Enzyme Research Laboratories (South Bend, Indiana)
Text: (§1) Reagents: All buffer salts were obtained from Sigma Chemical Company (St. Louis, MO), and were of the highest purity available. The enzyme substrates, N-benzoyl-Phe-Val-Arg-p-nitroanilide (Sigma B7632), N-benzoyl-Ile-Glu-Gly-Arg-p-nitroanilide (Sigma B2291), N-p-tosyl-Gly-Pro-Lys-p-nitroanilide (Sigma T6140), and N-succinyl-Ala-Ala-Pro-Phe-p-nitroanilide (Sigma S7388) were all obtained from Sigma.
(§2) Human α-thrombin. human factor Xa, and human plasmin were obtained from Enzyme Research Laboratories (South Bend, Indiana). Bovine α-chymotrypsin and bovine trypsin were obtained from Sigma.
Ki Determinations: All assays are based on the ability of the test compound to inhibit the enzyme-catalyzed hydrolysis of a peptide p-nitroanilide substrate. […] The final concentration for each of the substrates is listed below. In general, substrate concentrations are lower than the experimentally determined value for Km. Test compounds are prepared as a 0.16 mg/mL solution in DMSO. Dilutions are prepared in DMSO yielding 8 final concentrations encompassing a 200-fold concentration range. Enzyme solutions are prepared at the concentrations listed below in assay buffer.
Data corresponding to less than 10% of the total substrate hydrolysis were used in the calculations. The ratio of the velocity (rate of the change in absorbance as a function of time) for a sample containing no inhibitor is divided by the velocity of a sample containing inhibitor, and is plotted as a function of inhibitor concentration. The data are fit to a linear regression, and the value of the slope of the line calculated. The inverse of the slope is the experimentally determined Ki value.
Thrombin: Thrombin activity was assessed as the ability to hydrolyze the substrate Suc-Ala-Ala-Pro-Arg-pNA. […] Final DMSO concentration was 0.3%. […] Final reagent concentrations were: [thrombin] = 0.5 nM, [Suc-Ala-Ala-Pro-Arg-pNA] = 20 µM.

bovine trypsin = molecular target: T2, bovine trypsin (Bos taurus, UniProt P00760); experiment: In vitro inhibition of purified enzymes, Ki determination: trypsin; settings: Enzyme: Trypsin; substrate Bz-Phe-Val-Arg-pNA 14 µM; pH 7.5, 37°C
T2 construct: Purified bovine trypsin was diluted into assay buffer; purchased Sigma
T2 sequence (P00760 24-246): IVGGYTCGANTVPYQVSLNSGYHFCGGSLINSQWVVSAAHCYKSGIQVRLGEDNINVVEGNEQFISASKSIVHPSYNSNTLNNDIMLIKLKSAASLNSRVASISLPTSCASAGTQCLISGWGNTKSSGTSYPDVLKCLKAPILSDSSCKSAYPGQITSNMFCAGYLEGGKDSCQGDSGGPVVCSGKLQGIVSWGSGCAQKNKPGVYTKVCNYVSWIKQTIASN
Text: as §1, §2
(§3) Ki Determinations: All assays are based on the ability of the test compound to inhibit the enzyme-catalyzed hydrolysis of a peptide p-nitroanilide substrate. In a typical Ki determination, substrate is prepared in DMSO, and diluted into an assay buffer consisting of 50 mM HEPES, 200 mM NaCI, pH 7.5. The final concentration for each of the substrates is listed below. In general, substrate concentrations are lower than the experimentally determined value for Km. Test compounds are prepared as a 0.16 mg/mL solution in DMSO. Dilutions are prepared in DMSO yielding 8 final concentrations encompassing a 200-fold concentration range. Enzyme solutions are prepared at the concentrations listed below in assay buffer. […]
Trypsin: Trypsin activity was assessed as the ability to hydrolyze the substrate Bz-Phe-Val-Arg-pNA. […]

human plasmin = molecular target: T3, human plasmin (Homo sapiens, UniProt P00747); experiment: In vitro inhibition of purified enzymes, Ki determination: plasmin; settings: Enzyme: Plasmin; substrate Tos-Gly-Pro-Lys-pNA 22 µM; pH 7.5, 37°C
T3 construct: Purified human plasmin was diluted into assay buffer; purchased Enzyme Research Laboratories (South Bend, Indiana)
Text: as §1, §2, §3
Plasmin: Plasmin activity was assessed as the ability to hydrolyze the substrate Tos-Gly-Pro-Lys-pNA. […]

human Factor Xa = molecular target: T4, human Factor Xa (Homo sapiens, UniProt P00742); experiment: In vitro inhibition of purified enzymes, Ki determination: factor Xa; settings: Enzyme: Factor Xa; substrate Bz-Ile-Glu-Gly-Arg-pNA 51 µM; pH 7.5, 37°C
T4 construct: purchased Enzyme Research Laboratories (South Bend, Indiana)
Text: as §1, §2
as §3, with “range.” for “range. Enzyme solutions are prepared at the concentrations listed below in assay buffer.”
Factor Xa: Factor Xa activity was assessed as the ability to hydrolyze the substrate Bz-Ile-Glu-Gly-Arg-pNA. […]

bovine α-chymotrypsin = molecular target: T5, bovine α-chymotrypsin (Bos taurus, UniProt P00766); experiment: In vitro inhibition of purified enzymes, Ki determination: chymotrypsin; settings: Enzyme: Chymotrypsin; substrate Suc-Ala-Ala-Pro-Phe-pNA 14 µM; pH 7.5, 37°C
T5 construct: Purified bovine α-chymotrypsin was diluted into assay buffer; purchased Sigma
Text: as §1, §2
as §3, with “range.” for “range. Enzyme solutions are prepared at the concentrations listed below in assay buffer.”
Chymotrypsin: Chymotrypsin activity was assessed as the ability to hydrolyze the substrate Suc-Ala-Ala-Pro-Phe-pNA. […]

T4 sequence (P00742 235-488 limits assumed): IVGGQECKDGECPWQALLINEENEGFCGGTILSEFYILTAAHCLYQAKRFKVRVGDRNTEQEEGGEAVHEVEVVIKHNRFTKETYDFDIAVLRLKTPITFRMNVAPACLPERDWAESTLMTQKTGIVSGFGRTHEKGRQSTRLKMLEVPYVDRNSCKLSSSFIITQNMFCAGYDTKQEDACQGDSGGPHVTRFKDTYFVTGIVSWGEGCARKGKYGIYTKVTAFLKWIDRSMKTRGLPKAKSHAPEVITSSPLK
T4 sequence (P00742 41-179 partner limits assumed): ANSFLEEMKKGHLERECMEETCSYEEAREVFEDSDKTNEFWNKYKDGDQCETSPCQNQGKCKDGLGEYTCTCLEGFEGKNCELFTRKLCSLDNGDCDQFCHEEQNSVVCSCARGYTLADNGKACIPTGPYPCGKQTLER
T3 sequence (P00747 581-810 limits assumed): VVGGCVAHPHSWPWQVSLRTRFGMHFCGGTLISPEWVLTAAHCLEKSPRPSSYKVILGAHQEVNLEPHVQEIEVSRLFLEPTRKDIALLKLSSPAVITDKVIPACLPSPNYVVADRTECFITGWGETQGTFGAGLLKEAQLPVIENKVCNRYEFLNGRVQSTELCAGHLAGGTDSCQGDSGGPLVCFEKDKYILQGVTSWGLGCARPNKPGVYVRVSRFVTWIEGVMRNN
T3 sequence (P00747 97-580 partner limits assumed): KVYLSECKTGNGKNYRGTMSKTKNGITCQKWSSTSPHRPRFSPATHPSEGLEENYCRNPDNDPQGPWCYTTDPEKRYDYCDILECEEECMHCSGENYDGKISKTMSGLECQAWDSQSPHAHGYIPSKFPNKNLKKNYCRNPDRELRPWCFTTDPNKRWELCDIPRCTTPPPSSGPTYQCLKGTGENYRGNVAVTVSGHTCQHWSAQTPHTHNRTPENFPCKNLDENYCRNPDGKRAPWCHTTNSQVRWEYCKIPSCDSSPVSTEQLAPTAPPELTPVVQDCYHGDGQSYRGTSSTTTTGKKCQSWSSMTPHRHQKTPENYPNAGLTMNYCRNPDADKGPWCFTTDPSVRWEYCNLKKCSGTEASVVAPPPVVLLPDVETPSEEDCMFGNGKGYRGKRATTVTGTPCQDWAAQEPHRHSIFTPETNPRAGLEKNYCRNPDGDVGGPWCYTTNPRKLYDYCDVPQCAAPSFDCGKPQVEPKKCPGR

pKi (human α-thrombin)	Molecule	further results
7.72	2-Trifluoromethylbenzenesulfonic acid 3-[[1-(aminoiminomethyl)piperidin-4-yl]methoxy]-5-methylphenyl ester acetic acid salt [Example 38]	
	N=C(N)N1CCC(CNc2cccc(N(Cc3ccccc3)S(=O)(=O)c3ccccc3)c2)CC1 [Example 11, N-benzyl-N-[[3-(1-aminoiminomethyl)-piperidin-4-ylmethylamino]phenyl]benzenesulfonamide]	pKi (bovine trypsin): 5.28
	N=C(N)N1CCN(CCOc2cccc(OS(=O)(=O)c3ccccc3Cl)c2)CC1 [Example 5, 2-Chlorobenzenesulfonic acid 3-[2-[1-(aminoiminomelhyl)piperazin-4-yl]ethoxy]phenyl ester diacetic acid salt]	pKi (human plasmin): 4.53
	2-Chlorobenzenesulfonic acid 3-[[1-(aminoiminomethyl)piperidin-3-yl]methoxy]-5-methylphenyl ester [Example 4]	pKi (human Factor Xa): 4.24
7.40	2-Chlorobenzenesulfonic acid 3-[[1-(aminoiminomethyl)piperidin-4-yl]methoxy]-5-chlorophenyl ester hydrochloride [Example 24]	
7.47	3-Amino-2-chlorobenzenesulfonic acid 3-[[1-(aminoiminomethyl)piperidin-4-yl]methoxy]-5-methylphenyl ester dihydrochloride [Example 33]	
8.10	2-Chlorobenzenesulfonic acid, 3-[[1-(aminoiminomethyl)piperidin-4-yl]methoxy]-5-methylphenyl ester [Example 3]	
7.68	2,3-Dichlorobenzenesulfonic acid 3-[[1-(aminoiminomethyl)piperidin-4-yl]methoxy]-5-methylphenyl ester hydrochloride [Example 42]	
6.60	2-Chlorobenzenesulfonic acid 3-[[1-(aminoiminomethyl)piperidin-4-yl]methoxy]phenyl ester [Example 1]	
	N=C(N)N1CCC(COc2cc(OS(=O)(=O)c3ccccc3Cl)ccc2Cc2ccccc2)CC1 [Example 12, 2-Chlorobenzenesulfonic acid 3-[[1-aminoiminomethyl)piperidin-4-yl]methoxy]-4-benzylphenyl ester acetic acid salt]	pKi (bovine α-chymotrypsin): 4.90

Molecule	pKi (human α-thrombin)	further results
2-Chlorobenzenesulfonic acid 3-[[1-(aminoiminomethyl)piperidin-4-yl]methoxy]-5-hydroxymethylphenylester [Example 44]	5.16	
2-Chlorobenzenesulfonic acid 3-[2-[1-(aminoiminomethyl)piperazin-4-yl]ethoxy]-5-methylphenyl ester diacetic acid salt [Example 6]	6.48	
Benzenesulfonic acid 3-[[1-(aminoiminomethyl)piperidin-4-yl]methoxy]-5-methylphenyl ester acetic acid salt [Example 17]	7.44	
